Test results: US20050215646A1, “Methods for treating multiple sclerosis and pharmaceutical compositions therefor” (Renovis, Inc., priority 2004, published 2005)

How the values were obtained:
Format in all cases: cell-based
FMLP receptor = target: T1, FMLP receptor (Homo sapiens, UniProt P21462); assay: Migration of CHO-K1 cells expressing the FMLP receptor; conditions: 2 hours, FIG. 4
T1 construct: cDNA fragments encompassing chemokine receptor coding regions; expressed in transfected cells; host or cells: CHO-K1 (ATCC CCL-61), transient transfection
T1 sequence (P21462 1-350): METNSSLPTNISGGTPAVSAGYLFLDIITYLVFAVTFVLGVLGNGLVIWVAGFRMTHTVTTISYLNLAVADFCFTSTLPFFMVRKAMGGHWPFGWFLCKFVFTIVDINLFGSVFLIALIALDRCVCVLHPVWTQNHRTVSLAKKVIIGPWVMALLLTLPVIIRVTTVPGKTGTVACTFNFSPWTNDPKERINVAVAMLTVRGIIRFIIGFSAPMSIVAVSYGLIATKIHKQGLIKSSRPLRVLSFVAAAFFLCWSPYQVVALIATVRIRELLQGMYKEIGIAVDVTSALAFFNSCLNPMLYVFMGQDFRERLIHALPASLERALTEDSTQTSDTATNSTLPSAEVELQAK
Description: (§1) CHO-K1 cells were obtained from American Type Culture Collection (CCL-61) and cultured in Ham's F12 media supplemented with 10% heat inactivated FBS and 100 μg/ml penicillin/streptomycin. cDNA fragments encompassing chemokine receptor coding regions were obtained from cDNAs synthesized from HL-60 cells and/or human peripheral blood mononuclear cells by the polymerase chain reaction. Expression constructs of chemokine receptors were generated by cloning PCR fragments into expression vector pEF6/V5-TOPO (K9610-20, Invitrogen). Transient transfections were carried out with Fugene 6 transfection reagent (1814443, Roche Applied Science) according to the manufacturer's instructions.
(§2) The CHO-chemokine receptor cells were used in migration assays 36 hours following transfection. In vitro migration assays were performed using a Neuroprobe Blindwell migration apparatus (AA12, Neuro Probe, Inc./16008 Industrial Drive, Gaithersburg, Md. 20877) according to the manufacturer's instructions with slight modifications. […]
(§3) Following the migration assays, migrated cells that had adhered to the underside of the filter were quantitated according to the manufacturer's instructions. […] Stained filtered were mounted onto microscope slides and migrated cells in each well were manually counted under 40× magnification.

CXCR4 = CXCR4 (Homo sapiens, UniProt P61073); assay: Migration of CHO-K1 cells expressing CXCR4; parameters: cDNA fragments encompassing chemokine receptor coding regions; expressed in transfected cells; host or cells: CHO-K1 (ATCC CCL-61), transient transfection; conditions: CHO-K1 cells expressing CXCR4, 2 hours; FIG. 3
Description: as §1, §2, §3

[1] = test system: differentiated HL-60 cells; assay: Inhibition of chemoattractant-mediated chemotaxis of differentiated HL-60 cells after pretreatment; conditions: cells pre-incubated with compound 30 minutes at 37° C, migration 2 hours
Description: Compound 1 was prepared according to the methods of the invention and tested as described below. Briefly, cells were pre-incubated with Compound 1, and then assayed for chemokine-mediated cell migration.
In vitro cell migration assays were performed using differentiated HL-60 cells. HL-60 cells were differentiated by adding 1.4% DMSO to RPMI-1640 media supplemented with 10% FBS and 100 μg/ml penicillin/streptomycin. Cells on the sixth day following differentiation were used for in vitro migration assays.
In vitro migration assays were performed using a Neuroprobe migration apparatus (MBB96, Neuro Probe, Inc., Gaithersburg, Md. 20877) according to the manufacturer's protocol with slight modifications. Briefly, about 370 μl of diluted chemokine or control was added to a 96-well fibronectin-coated, black-walled Packard plate. Chemoattractants included 100 nM formyl-methionyl-leucyl-phenylalanine (fMLP), 30 ng/ml chemokine Stromal Cell-Derived Factor-1 (SDF-1), 300 ng/ml chemokine IL-8. Negative control included migration media alone. The plate was placed into the migration apparatus, an 8 μm framed filter was carefully placed on top of the plate, and the apparatus was screwed down. […]
After staining, the cells were washed with 200 μl phosphate-buffered saline. Cell number in each well was quantitated using ImageXpress (Axon Instruments) or a fluorescent plate reader.

CXCR4, sequence (P61073 whole entry, the tested form may be a part): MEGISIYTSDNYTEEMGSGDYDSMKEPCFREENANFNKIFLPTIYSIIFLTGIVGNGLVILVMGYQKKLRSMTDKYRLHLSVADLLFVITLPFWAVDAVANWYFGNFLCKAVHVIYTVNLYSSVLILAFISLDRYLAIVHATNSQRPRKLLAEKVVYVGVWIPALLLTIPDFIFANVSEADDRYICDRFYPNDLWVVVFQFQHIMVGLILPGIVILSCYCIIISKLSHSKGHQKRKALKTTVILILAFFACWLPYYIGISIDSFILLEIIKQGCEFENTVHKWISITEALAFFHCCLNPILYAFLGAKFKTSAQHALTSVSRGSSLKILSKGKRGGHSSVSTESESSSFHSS

`CC(C)(C)c1cc(/C=[N+](\[O-])C(C)(C)C)cc(C(C)(C)C)c1O` [Compound 1, α-(4-hydroxy-3,5-di-tert-butylphenyl)-N-tert-butylnitrone] was tested, and the “induction of cell migration” value (FMLP receptor) was “did not induce migration”, the “induction of cell migration” value (CXCR4) was “induced migration” and the “chemotaxis of the cells toward CXC chemokines such as IL-8 and SDF-1” value ([1]; FIG. 1) was “inhibits”. The “chemotaxis of the cells toward fMLP and CCR chemokines such as Rantes and MIP-1” value ([1]; FIG. 2) was “inhibits”.
